# Target: T1, ERAP1 (Homo sapiens, UniProt Q9NZ08)
# T1 construct: Purified ERAP1(37-941)-10His (ERAP1)
# Experiment: ERAP1 mediated hydrolysis of an amide substrate measured in a biochemical system (10-mer inhibition assay)
# Conditions: purified ERAP1(37-941)-10His; 10-mer substrate; 23° C. for 1 h; excitation 279 nm, emission 355 nm; read-out: IC50 vs Decapeptide WRVYEKC(Dnp)ALK-acid (where Dnp is Dinitrophenyl maleimide) (10-mer)
# Protocol: Biological Assay 1: ERAP1 Mediated Hydrolysis of an Amide Substrate Measured in a Biochemical System
# • 1× Assay buffer (AB): 25 mM Bis-tris propane, 0.05% w/v • Hydroxypropylmethylcellulose pH 7.75 made with Optima grade water • Decapeptide WRVYEKC(Dnp)ALK-acid (where Dnp is Dinitrophenyl maleimide) (10-mer) • L-Leucine 7-amido-4-methylcoumarin (L-AMC) • Purified ERAP1(37-941)-10His (ERAP1) Assay Procedure:
# 12.5 μL ERAP1 enzyme in 1×AB was combined with 250 nL test compound in DMSO. 12.5 μL of either 240 μM L-AMC in 1×AB or 100 μM 10-mer in 1×AB was added to the reaction and incubated at 23° C. for 1 h. For detection, plates were read at excitation 365 nm and emission 442 nm (L-AMC) or excitation 279 nm and emission 355 nm (10-mer). Compound IC50 was determined using a 4-parameter equation.
# T1 sequence (Q9NZ08 37-941): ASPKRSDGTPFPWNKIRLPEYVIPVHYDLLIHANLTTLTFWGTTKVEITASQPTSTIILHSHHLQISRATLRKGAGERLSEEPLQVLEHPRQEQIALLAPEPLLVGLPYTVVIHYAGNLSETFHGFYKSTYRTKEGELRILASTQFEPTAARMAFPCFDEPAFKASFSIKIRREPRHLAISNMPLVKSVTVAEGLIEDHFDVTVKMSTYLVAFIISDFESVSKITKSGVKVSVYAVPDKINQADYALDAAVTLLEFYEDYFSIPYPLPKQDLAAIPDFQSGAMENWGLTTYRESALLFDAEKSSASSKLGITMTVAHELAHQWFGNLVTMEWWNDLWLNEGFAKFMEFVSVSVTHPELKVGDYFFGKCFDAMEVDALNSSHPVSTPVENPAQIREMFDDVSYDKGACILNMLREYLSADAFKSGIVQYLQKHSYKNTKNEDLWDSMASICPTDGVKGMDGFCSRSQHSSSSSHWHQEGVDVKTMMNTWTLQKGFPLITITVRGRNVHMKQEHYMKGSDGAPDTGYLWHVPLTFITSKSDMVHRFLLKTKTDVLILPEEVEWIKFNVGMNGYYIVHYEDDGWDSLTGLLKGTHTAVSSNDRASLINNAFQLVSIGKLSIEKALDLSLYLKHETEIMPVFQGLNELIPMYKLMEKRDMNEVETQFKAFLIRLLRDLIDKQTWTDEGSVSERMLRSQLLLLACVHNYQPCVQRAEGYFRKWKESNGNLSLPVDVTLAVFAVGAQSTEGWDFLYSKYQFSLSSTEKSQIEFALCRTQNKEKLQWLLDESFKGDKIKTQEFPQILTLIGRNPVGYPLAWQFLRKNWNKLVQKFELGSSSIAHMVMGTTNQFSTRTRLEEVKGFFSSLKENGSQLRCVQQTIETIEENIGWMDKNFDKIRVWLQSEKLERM
row,SMILES,IC50
1,"CCc1ccc(C(=O)O)cc1S(=O)(=O)Nc1cc(C(F)(F)F)ccc1OC1CCCC1 [Example 5, 3-(N-(2-(cyclopentyloxy)−5-(trifluoromethyl)phenyl)sulfamoyl)-4-ethylbenzoic acid]",> 5 nM
2,"CCc1ccc(C(=O)O)cc1S(=O)(=O)Nc1cc(C(F)(F)F)ccc1OC1CCC1 [Example 7, 3-(N-(2-cyclobutoxy-5-(trifluoromethyl)phenyl)sulfamoyl)-4-ethylbenzoic acid]",> 5 nM
3,"N#Cc1cc(NS(=O)(=O)c2cc(C(=O)O)ccc2C2CC2)c(OC2CCC2)cc1Cl [Example 12, 3-(N-(4-chloro-5-cyano-2-cyclobutoxyphenyl)sulfamoyl)-4-cyclopropylbenzoic acid]",< 1 nM
4,"N#Cc1cc(NS(=O)(=O)c2cc(C(=O)O)ccc2C2CC2)c(OC2CC(F)(F)C2)cc1Cl [Example 13, 3-(N-(4-chloro-5-cyano-2-(3,3-difluorocyclobutoxy)phenyl)sulfamoyl)-4-cyclopropylbenzoic acid]",1 to 5 nM
5,"N#Cc1cc(F)c(OC2CCCC2)c(NS(=O)(=O)c2cc(C(=O)O)ccc2C2CC2)c1 [Example 14, 3-(N-(5-cyano-2-(cyclopentyloxy)−3-fluorophenyl)sulfamoyl)-4-cyclopropylbenzoic acid]",> 5 nM
6,"Cc1cc(C#N)cc(NS(=O)(=O)c2cc(C(=O)O)ccc2C2CC2)c1OC1CCCC1 [Example 15, 3-(N-(5-cyano-2-(cyclopentyloxy)−3-methylphenyl)sulfamoyl)-4-cyclopropylbenzoic acid]",> 5 nM
7,"N#Cc1cc(NS(=O)(=O)c2cc(C(=O)O)c(F)cc2C2CC2)c(OC2CC(F)(F)C2)cc1Cl [Example 17, 5-(N-(4-chloro-5-cyano-2-(3,3-difluorocyclobutoxy)phenyl)sulfamoyl)-4-cyclopropyl-2-fluorobenzoic acid]",< 1 nM
8,"N#Cc1cc(Cl)c(OC2CCCC2)c(NS(=O)(=O)c2cc(C(=O)O)ccc2C2CC2)c1 [Example 19, 3-(N-(3-chloro-5-cyano-2-(cyclopentyloxy)phenyl)sulfamoyl)-4-cyclopropylbenzoic acid]",1 to 5 nM
9,"O=C(O)c1ccc(C2CC2)c(S(=O)(=O)Nc2cc(-c3ccns3)c(F)cc2OC2CCCC2)c1 [Example 21, 3-(N-(2-(cyclopentyloxy)-4-fluoro-5-(isothiazol-5-yl)phenyl)sulfamoyl)-4-cyclopropylbenzoic acid]",1 to 5 nM
10,"Cc1cc(C2CC2)c(S(=O)(=O)Nc2cc(C#N)c(Cl)cc2OC2CCCC2)cc1C(=O)O [Example 26, 5-(N-(4-chloro-5-cyano-2-(cyclopentyloxy)phenyl)sulfamoyl)-4-cyclopropyl-2-methylbenzoic acid]",1 to 5 nM
11,"N#Cc1cc(NS(=O)(=O)c2cc(C(=O)O)ccc2C2CC2)c(OCC2CCOC2)cc1Cl (stereo not shown) [Example 28, 3-(N-(4-chloro-5-cyano-2-((tetrahydrofuran-3-yl)methoxy)phenyl)sulfamoyl)-4-cyclopropylbenzoic acid]",1 to 5 nM
12,"C#CC1(Oc2cc(Cl)c(C#N)cc2NS(=O)(=O)c2cc(C(=O)O)ccc2C2CC2)CCCC1 [Example 30, 3-(N-(4-chloro-5-cyano-2-((1-ethynylcyclopentyl)oxy)phenyl)sulfamoyl)-4-cyclopropylbenzoic acid]",1 to 5 nM
13,"N#Cc1cc(NS(=O)(=O)c2cc(C(=O)O)ccc2C2CC2)c(OCC2CC(F)(F)C2)cc1Cl [Example 31, 3-(N-(4-chloro-5-cyano-2-((3,3-difluorocyclobutyl)methoxy)phenyl)sulfamoyl)-4-cyclopropylbenzoic acid]",1 to 5 nM
14,"CC1(COc2cc(Cl)c(C#N)cc2NS(=O)(=O)c2cc(C(=O)O)ccc2C2CC2)COC1 [Example 32, 3-(N-(4-chloro-5-cyano-2-((3-methyloxetan-3-yl)methoxy)phenyl)sulfamoyl)-4-cyclopropylbenzoic acid]",1 to 5 nM
15,"CC1(C)CC(Oc2cc(Cl)c(C#N)cc2NS(=O)(=O)c2cc(C(=O)O)ccc2C2CC2)C1 [Example 33, 3-(N-(4-chloro-5-cyano-2-(3,3-dimethylcyclobutoxy)phenyl)sulfamoyl)-4-cyclopropylbenzoic acid]",< 1 nM
16,"N#Cc1cc(NS(=O)(=O)c2cc(C(=O)O)ccc2C2CC2)c(OCC2COC2)cc1Cl [Example 36, 3-(N-(4-chloro-5-cyano-2-(oxetan-3-ylmethoxy)phenyl)sulfamoyl)-4-cyclopropylbenzoic acid]",1 to 5 nM
17,"N#Cc1cc(NS(=O)(=O)c2cc(C(=O)O)ccc2C2CC2)c(OCC2(F)COC2)cc1Cl [Example 37, 3-(N-(4-chloro-5-cyano-2-((3-fluorooxetan-3-yl)methoxy)phenyl)sulfamoyl)-4-cyclopropylbenzoic acid]",1 to 5 nM
18,"CN1CC(COc2cc(Cl)c(C#N)cc2NS(=O)(=O)c2cc(C(=O)O)ccc2C2CC2)C1 [Example 38, 3-(N-(4-chloro-5-cyano-2-((1-methylazetidin-3-yl)methoxy)phenyl)sulfamoyl)-4-cyclopropylbenzoic acid]",> 5 nM

# Continued, values first:
row,IC50,SMILES
1,1 to 5 nM,"N#Cc1ccc(OC2CCCC2)c(NS(=O)(=O)c2cc(C(=O)O)ccc2C2CC2)c1 [Example 6, 3-(N-(5-cyano-2-(cyclopentyloxy)phenyl)sulfamoyl)-4-cyclopropylbenzoic acid]"
2,< 1 nM,"O=C(O)c1ccc(C2CC2)c(S(=O)(=O)Nc2cc(-n3cnnn3)ccc2OC2CCCC2)c1 [Example 8, 3-(N-(2-(cyclopentyloxy)-5-(1H-tetrazol-1-yl)phenyl)sulfamoyl)-4-cyclopropylbenzoic acid]"
3,< 1 nM,"O=C(O)c1ccc(C2CC2)c(S(=O)(=O)Nc2cc(-n3cnnn3)c(F)cc2OC2CCCC2)c1 [Example 9, 3-(N-(2-(cyclopentyloxy)-4-fluoro-5-(1H-tetrazol-1-yl)phenyl)sulfamoyl)-4-cyclopropylbenzoic acid]"
4,< 1 nM,"O=C(O)c1ccc(C2CC2)c(S(=O)(=O)Nc2cc(-n3cnnn3)c(Cl)cc2OC2CCCC2)c1 [Example 10, 3-(N-(4-chloro-2-(cyclopentyloxy)−5-(1H-tetrazol-1-yl)phenyl)sulfamoyl)-4-cyclopropylbenzoic acid]"
5,< 1 nM,"N#Cc1cc(NS(=O)(=O)c2cc(C(=O)O)ccc2C2CC2)c(OC2CCCC2)cc1F [Example 11, 3-(N-(5-cyano-2-(cyclopentyloxy)-4-fluorophenyl)sulfamoyl)-4-cyclopropylbenzoic acid]"
6,< 1 nM,"N#Cc1cc(NS(=O)(=O)c2cc(C(=O)O)c(F)cc2C2CC2)c(OC2CCCC2)cc1Cl [Example 16, 5-(N-(4-chloro-5-cyano-2-(cyclopentyloxy)phenyl)sulfamoyl)-4-cyclopropyl-2-fluorobenzoic acid]"
7,< 1 nM,"N#Cc1cc(NS(=O)(=O)c2cc(C(=O)O)cc(F)c2C2CC2)c(OC2CCCC2)cc1Cl [Example 18, 3-(N-(4-chloro-5-cyano-2-(cyclopentyloxy)phenyl)sulfamoyl)-4-cyclopropyl-5-fluorobenzoic acid]"
8,< 1 nM,"O=C(O)c1ccc(C2CC2)c(S(=O)(=O)Nc2cc(-c3ccns3)ccc2OC2CCCC2)c1 [Example 20, 3-(N-(2-(cyclopentyloxy)-5-(isothiazol-5-yl)phenyl)sulfamoyl)-4-cyclopropylbenzoic acid]"
9,< 1 nM,"O=C(O)c1ccc(C2CC2)c(S(=O)(=O)Nc2cc(-c3ccns3)c(Cl)cc2OC2CCCC2)c1 [Example 22, 3-(N-(4-chloro-2-(cyclopentyloxy)−5-(isothiazol-5-yl)phenyl)sulfamoyl)-4-cyclopropylbenzoic acid]"
10,< 1 nM,"Cc1oncc1-c1ccc(OC2CCCC2)c(NS(=O)(=O)c2cc(C(=O)O)ccc2C2CC2)c1 [Example 23, 3-(N-(2-(cyclopentyloxy)-5-(5-methylisoxazol-4-yl)phenyl)sulfamoyl)-4-cyclopropylbenzoic acid]"
11,< 1 nM,"Cc1oncc1-c1cc(NS(=O)(=O)c2cc(C(=O)O)ccc2C2CC2)c(OC2CCCC2)cc1F [Example 24, 3-(N-(2-(cyclopentyloxy)-4-fluoro-5-(5-methylisoxazol-4-yl)phenyl)sulfamoyl)-4-cyclopropylbenzoic acid]"
12,< 1 nM,"Cc1oncc1-c1cc(NS(=O)(=O)c2cc(C(=O)O)ccc2C2CC2)c(OC2CCCC2)cc1Cl [Example 25, 3-(N-(4-chloro-2-(cyclopentyloxy)−5-(5-methylisoxazol-4-yl)phenyl)sulfamoyl)-4-cyclopropylbenzoic acid]"
13,< 1 nM,"CC1(COc2cc(Cl)c(C#N)cc2NS(=O)(=O)c2cc(C(=O)O)ccc2C2CC2)CCC1 [Example 27, 3-(N-(4-chloro-5-cyano-2-((1-methylcyclobutyl)methoxy)phenyl)sulfamoyl)-4-cyclopropylbenzoic acid]"
14,< 1 nM,"N#Cc1cc(NS(=O)(=O)c2cc(C(=O)O)ccc2C2CC2)c(OC2CCC23COC3)cc1Cl (stereo not shown) [Example 29, 3-(N-(2-((2-oxaspiro[3.3]heptan-5-yl)oxy)-4-chloro-5-cyanophenyl)sulfamoyl)-4-cyclopropylbenzoic acid]"
15,< 1 nM,"N#Cc1cc(NS(=O)(=O)c2cc(C(=O)O)ccc2C2CC2)c(OC2CC3(CC3)C2)cc1Cl [Example 34, 3-(N-(4-chloro-5-cyano-2-(spiro[2.3]hexan-5-yloxy)phenyl)sulfamoyl)-4-cyclopropylbenzoic acid]"
16,< 1 nM,"N#Cc1cc(NS(=O)(=O)c2cc(C(=O)O)ccc2C2CC2)c(OCC2CCC2)cc1Cl [Example 35, 3-(N-(4-chloro-5-cyano-2-(cyclobutylmethoxy)phenyl)sulfamoyl)-4-cyclopropylbenzoic acid]"

# From patent US12692223B2, “Phenyl-sulfamoyl-benzoic acid derivatives as ERAP1-modulators” (GREY WOLF THERAPEUTICS LIMITED, priority 2021, dated 2026)
